How the values were obtained:
[1] = tested on: hBMSC/SSC organoids; test: Pan-ID inhibition in hBMSC/SSC organoids during chondrogenic differentiation, qRT-PCR of chondro-osteogenic genes; format: cell-based, human
Description: Chondrogenic Differentiation of hBMSCs/SSC-derived Organoids: To generate control organoids, 2.5×10^5 hBMSCs/SSCs (passage 2) were suspended in 1 mL chondrogenic medium—which consisted of high glucose Dulbecco's Modified Eagle Medium (DMEM) with sodium pyruvate (ThermoFisher, Cat. No. 11995073), 1% insulin-transferrin-selenium (ThermoFisher, Cat. No. 51500056), 100 nM dexamethasone, 50 ug/mL L-ascorbic acid phosphate magnesium salt n-hydrate, 1% penicillin/streptomycin, and 10 ng/mL TGFβ1 (Peprotech, Cat. No. 100-21)—in 14 mL conical tubes. The same process was employed to generate HyA-FMB organoids, except each conical tube contained 3 mg of pre-sterilized HyA-FMBs (70% ethanol washes overnight), which were constructed according to established protocols (Kuznetsov et al., Stem Cells Translational Medicine, 26, 586-592. //doi.org/10.1016/j.joca.2018.02.293, 2019). […]
qRT-PCR. […] Lysates were processed according to Qiagen's RNeasy Mini Kit with DNAse treatment (Cat. No. 74004), and RNA quality and concentration was measured using NanoDrop. cDNA was constructed using SuperScript III First-Strand Synthesis SuperMix (ThermoFisher, Cat. No. 11752050) with no Reverse Transcriptase added to negative controls. Samples were measured in triplicate using the Quantstudio 6 Flex system (Applied Biosystems), and ΔΔCT values were calculated using GAPDH as internal controls.

[2] = tested on: hBMSC/SSC; settings: chronic BMP blockade; Franco et al. 2022; cited from earlier work
[3] = tested on: Hedgehog; settings: according to Wu et al. 2021; cited from earlier work
[4] = tested on: hBMSCs/SSCs; test: scRNA-seq of hBMSC/SSC organoids with or without HyA-FMBs during chondrogenic differentiation; format: cell-based, human; settings: day 10 of chondrogenic differentiation
Description: Chondrogenic Differentiation of hBMSCs/SSC-derived Organoids: To generate control organoids, 2.5×10^5 hBMSCs/SSCs (passage 2) were suspended in 1 mL chondrogenic medium—which consisted of high glucose Dulbecco's Modified Eagle Medium (DMEM) with sodium pyruvate (ThermoFisher, Cat. No. 11995073), 1% insulin-transferrin-selenium (ThermoFisher, Cat. No. 51500056), 100 nM dexamethasone, 50 ug/mL L-ascorbic acid phosphate magnesium salt n-hydrate, 1% penicillin/streptomycin, and 10 ng/mL TGFβ1 (Peprotech, Cat. No. 100-21)—in 14 mL conical tubes. […]
Control and HyA-FMB organoids from days 1-10 and ectopic HyA-FMB transplant were digested in high-glucose DMEM containing 0.2% collagenase II (ThermoFisher, Cat. No. 17101015), 0.1% hyaluronidase (Merck, Cat. No. H3506), and 0.1% dispase (Sigma, Cat. No. D4693) with gentle pipetting every 20-30 minutes. […] Only samples with >95% viability were submitted for single-cell capture, as measured by Vi-CELL BLU Cell Viability Analyzer (Beckman Coulter). […] Reads were mapped using GRCh38-2020-A reference transcriptome, and libraries were processed using Cell Ranger version 7.0. […] Differentially expressed genes, which represented at least 25% of each cluster (p<0.05), were analyzed using gProfiler (biit.cs.ut.ee/gprofiler/gost) for functional enrichment analysis and cell cluster annotation.

[5] = tested on: sclerotome cells; test: Chondrogenic differentiation of hiPSC-derived sclerotome cells (pellet cultures, chondrospheroids), staining and Incucyte imaging; format: cell-based, human; settings: pellet cultures from all sclerotome cells; 10 ng/mL each factor; across 42 days
Description: Staining Procedure. Paraffin-embedded tissues were used for immunofluorescence. Tissues were sectioned at 7 μm and heated for 1 hour at 60° C., then rehydrated in 2 washes of xylene (5 minutes), 100% ethanol (5 minutes), 95% ethanol (5 minutes), 70% ethanol (5 minutes), and distilled water (5 minute). Two different antigen retrieval methods were used: (1) for staining with COL1A1, COL2A1, COL10A1, PRG4, and hVIMENTIN, tissues were treated with 2 mg/mL hyaluronidase/PBS solution for 1 hour at 37° C., followed by a PBS wash and treatment with Pepsin (Millipore Sigma, Cat. No. R2283) for 5-10 minutes at 37° C.; (2) for staining with MGP, COMP, DPT, ACAN, and ALPL, tissues were incubated in citrate buffer (Millipore Sigma, Cat. No. C9999) for 1 hour at 70° C., followed by a 15-second wash with distilled water. Cytofix/Cytoperm buffer (BD, Cat. No. 554722) was used in some cases to enhance intracellular staining. Tissues were blocked in staining solution—PBS supplemented with 5% donkey serum (Sigma, Cat. No. D9663) and 0.5% IgePal (Sigma, Cat. No. I3021)—for 30 minutes, then stained with primary antibodies overnight at 4° C. […]
Confocal Imaging. […] Maximum intensity projections were merged in Fiji/Image J (National Institutes of Health) for image analysis and quantifications. […]

CCC(=O)N(CCC(c1ccc2c(c1)OCO2)c1ccccc1OC)Cc1ccccc1 (stereo not drawn) [AGX51]
RUNX2, IBSP and COL1A1 (osteogenic) gene expression ([1]; 30 μM AGX51 every 2-3 days for 28 days, qRT-PCR at days 3, 7, 14, 21, 28, versus vehicle): initial decrease in RUNX2 and IBSP expression at days 3 and 7, followed by an increase in RUNX2, IBSP, and COL1A1 expression from days 21-28 | chondrogenic gene expression (SOX9, ACAN, and COL2A1) ([1]; 30 μM AGX51 for 28 days, qRT-PCR): initially decreased, but stabilized

Cl.c1ccc2c(-c3cnn4cc(-c5ccc(N6CCNCC6)cc5)cnc34)ccnc2c1 [LDN 193189, 4-(6-(4-(piperazin-1-yl)phenyl)pyrazolo[1,5-a]pyrimidin-3-yl)quinoline hydrochloride]
hypertrophic expression [2]: does not prevent hypertrophic expression

c1ccc2c(Oc3nc(Nc4ccc(N5CCOCC5)cc4)c4ncn(C5CCCCC5)c4n3)cccc2c1 [purmorphamine]
suitability as Hedgehog agonist for sclerotome induction [3]: effective substitute for the commercially-synthesized Hedgehog agonist 21K

TGFβ1: transforming growth factor β1, recombinant growth factor in chondrogenic medium
IBSP+ cell populations [4]: About 90% | matrix protein expression in sclerotome-derived pellet cultures [5]: stable COL1A1 and COL2A1 expression across 42 days, with sporadic ACAN and minimal PRG4 expression
